Target: T1, PhXyl (extracellular β-xylosidase) (Pseudozyma hubeiensis, UniProt R9NZV8)
T1 construct: gene PHSY_001848; native extracellular enzyme purified from culture supernatant
T1 sequence (R9NZV8 24-873): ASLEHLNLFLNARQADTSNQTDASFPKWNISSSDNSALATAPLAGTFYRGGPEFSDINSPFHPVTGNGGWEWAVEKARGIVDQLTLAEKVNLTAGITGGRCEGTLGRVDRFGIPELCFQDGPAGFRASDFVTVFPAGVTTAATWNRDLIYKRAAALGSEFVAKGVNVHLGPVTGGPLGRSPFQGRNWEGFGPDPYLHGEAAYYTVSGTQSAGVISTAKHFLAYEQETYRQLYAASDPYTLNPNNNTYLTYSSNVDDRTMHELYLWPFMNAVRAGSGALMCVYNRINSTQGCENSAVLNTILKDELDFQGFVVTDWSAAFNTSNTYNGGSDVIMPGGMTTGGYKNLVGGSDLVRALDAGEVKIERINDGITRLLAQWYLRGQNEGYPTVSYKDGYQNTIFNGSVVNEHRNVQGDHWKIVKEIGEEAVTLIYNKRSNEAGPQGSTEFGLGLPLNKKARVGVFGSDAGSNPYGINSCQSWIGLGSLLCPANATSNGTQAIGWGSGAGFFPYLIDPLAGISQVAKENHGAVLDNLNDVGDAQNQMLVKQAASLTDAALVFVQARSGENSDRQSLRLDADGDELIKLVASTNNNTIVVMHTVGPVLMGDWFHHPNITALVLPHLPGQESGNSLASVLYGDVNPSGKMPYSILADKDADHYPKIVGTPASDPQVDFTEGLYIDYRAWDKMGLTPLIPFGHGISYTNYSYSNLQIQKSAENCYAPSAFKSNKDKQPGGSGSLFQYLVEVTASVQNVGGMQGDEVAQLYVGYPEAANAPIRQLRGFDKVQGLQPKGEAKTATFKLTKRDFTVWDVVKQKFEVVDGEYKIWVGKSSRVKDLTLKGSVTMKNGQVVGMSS
Test: inhibition of pNPX hydrolysis
Format: biochemical
Conditions: read-out: % activity at 75 mM

- activity at 75000 µM: 50%
Compound: OC1OC[C@@H](O)[C@H](O)[C@H]1O (stereo partly shown) [xylose]

Source: paper PMC5023640, “Purification and characterization of an extracellular β-xylosidase from Pseudozyma hubeiensis NCIM 3574 (PhXyl), an unexplored yeast” (AMB Express, 2016)
